Series [1] is classed as in vivo, Wistar rats. The settings on record: in a period of one hour following the injection. An excerpt:
(§1) Each of the mixtures is then solubilized in water.

The conditions of series [2]: for Δct: vs CP. As for the experimental part:
The experimental results described below were obtained on the basis of a study carried out in healthy human beings and in healthy Wistar rats weighing approximately 250 grams.
An acclimation period was observed before beginning the experiments.
The rats received an administration per os of a volume of 5 ml of a solution of active product.
(§2) With regard to taking the blood samples from the rats and from the human beings, the blood was collected in tubes internally coated with EDTA and was then centrifuged at 3000 rpm (revolutions per minute) at ambient temperature for 45 min, and then for 15 min at a temperature of 4° C. The plasma was then collected and stored at −70° C. before analysis.
(§3) The analytical technique (LC-MS/MS for Liquid Chromatography coupled to tandem Mass Spectrometry) for measuring the active substance in the blood was based on the method described by Mata-Bilbao et al., published in 2007 in the Journal of Agricultural and Food Chemistry, volume 55, page 8857.
(§4) The free (+)-catechin was extracted from the plasma with a solution of phosphoric acid, EDTA and ascorbic acid and was then purified by SPE (solid phase extraction); in particular, it is an Oasis™ HLB extraction which is analyzed by LC-MS/MS. The quantification was carried out according to a standard calibration procedure with (+/−)-catechin-2,3,4-^13C3 as internal standard (SI).
The procedure is identical with regard to the extraction and the quantification of free quercetin or ECGC in the blood.
With regard to the extraction and quantification of the total (+)-catechin, the procedure is the same as that applied to the free (+)-catechin, with the exception of the fact that an additional step prior to the purification by SPE is carried out.
as §1
Each of the mixtures is solubilized in water.

The next series relates to collagen of rat skin. The series is described as follows: Total incorporation and incorporation into collagen of 3H-proline in the skin. The class given is in vivo, Wistar rats. The following applies: 100 mg/kg by gavage, vs control subgroup. As for the experimental part:
To do this, a study was carried out in vivo on a batch of 24 female Wistar rats weighing from 95 to 115 g, divided into two groups C and D, each of 12 rats. For each group, the radioactive 3H-hydroxyproline, the specific activity of which is 13.6 Ci/10-3 mol, was administered to all the animals by intraperitoneal injection of 3H-proline at a dose, relative to the weight of the individuals, of 1 mCi/kg, which represents an activity in terms of radioactive 3H-proline of 100 μCi/individual.
6 rats of each group received a treatment based on monomeric (+)-catechin by gavage in a proportion of 100 mg/kg for 5 days before sacrifice. […] The group C received monomeric (+)-catechin hydrochlorolysinate, while the group D received monomeric (+)-catechin ascorbolysinate.
In table 8, the level of incorporation is measured by the number of disintegrations of the radioactive 3H-hydroxyproline per minute (dpm) per mg of dry weight. The higher this number, the higher the concentration of 3H-hydroxyproline.
In this comparative example, a group E of 12 Wistar rats weighing from 95 to 115 g, in which radioactive 3H-hydroxyproline, the specific activity of which is 13.6 Ci/10-3 mol, was administered to all the individuals by intraperitoneal injection of 3H-proline at a dose, relative to the weight of the individuals, of 1 mCi/kg, which represents an activity in terms of radioactive 3H-proline of 100 μCi/individual.
6 rats of each group received a treatment based on pure monomeric (+)-catechin by gavage in a proportion of 100 mg/kg for 5 days before sacrifice.

A short description of series [3]: Bioavailability after oral administration in human beings (free monomeric (+)-catechin in plasma, LC-MS/MS). As for the experimental part: as §2, §3, §4
This complex salt is administered to a group A of 5 healthy volunteers.
This ct parameter makes it possible to calculate, from the data of table 1, the bioavailability of the (+)-catechin expressed in ng h/ml.

A short description of the next series: Solubility in water. The class given is physicochemical.
The mark [4] stands for this setting: free (+)-catechin, rats, oral, dose equivalent to 25 mg/kg (+)-catechin, 3 Wistar rats.
[5] abbreviates: free (+)-catechin, rats, per os, dose equivalent to 25 mg/kg (+)-catechin, 5 Wistar rats, pulverulent mixture solubilized in water.
The mark [6] stands for this setting: total (+)-catechin (free and conjugated), rats, oral, dose equivalent to 25 mg/kg, 3 Wistar rats.
Where [7] appears, read: free (+)-catechin, 1 g pure monomeric (+)-catechin, group B.
[8] abbreviates: free monomeric (+)-catechin in plasma.

Each structure is given as a SMILES string. Where two headings read alike, the source gives them in different places.

Turning to `Oc1cc(O)c2c(c1)O[C@H](c1ccc(O)c(O)c1)[C@@H](O)C2` [CP, (+)-catechin], in series [1], the “content of free monomeric (+)-catechin eliminated from the blood” value is roughly 90%. Moreover, the “T (max)” value is 0.5 h in series [2] (setting [4]); 1 h in series [2] (free (+)-catechin, rats, oral, dose equivalent to 100 mg/kg (+)-catechin, 5 Wistar rats); 1 h in series [2] (setting [5]); 0.5 h in series [2] (setting [6]); 1.20 h in series [3] (setting [7]); 1.33 h in series [3] (setting [8]). Further, the Δct is recorded as 0% in series [2] (setting [4]); 0% in series [2] (free (+)-catechin, rats, per os, dose equivalent to 25 mg/kg, 5 Wistar rats); 0% in series [2] (total (+)-catechin, rats, oral, dose equivalent to 25 mg/kg, 3 Wistar rats). Also, the “Δct (difference of ct to CP, related back to CP)” value in series [2] (free (+)-catechin, rats, oral, dose equivalent to 100 mg/kg (+)-catechin) was 0%. Moreover, the “c (max)” value in series [2] (setting [5]) came out at 580 ng/mL; in series [2] (setting [6]), 2200 ng/mL; in series [3] (setting [7]), 280 ng/mL. The ct in series [2] (setting [5]) is reported as 91 935 ng min/ml. Also, the “decrease of the peak content of free monomeric (+)-catechin in the blood” value in series [2] (oral absorption, after two hours) worked out at 50%. Besides, the “increase in the level of incorporation” value in the series with collagen of rat skin is listed as “+16%”. The “c (max) related back to 0.92 g of pure (+)-catechin” value in series [3] was 258 ng/mL. In series [3] (equivalent amount of 0.92 g pure (+)-catechin), the “ct related back to 0.92 g of pure (+)-catechin” value came out at 0.832 ± 0.15 µg·h/mL. Also, in series [3] (equivalent amount of 0.920 g pure (+)-catechin), the “ct related back to 0.920 g of pure (+)-catechin” value is listed as 49 920 ng min/ml. Also, the “ct (total concentration, area under the curve over six hours)” value in series [3] (free (+)-catechin, 1 g pure monomeric (+)-catechin, group B, listed as pure (+)-catechin) was 0.904 ± 0.163 µg·h/mL. For the same compound, the “c (max) for 1 g of monomeric (+)-catechin ingested as it is” value in series [3] (setting [8]) is listed as 280 ng. Besides, the “solubility in water compared with the complexed form” value in “Solubility in water” was found to be 400 times lower.
